EP4342890A1, “PLATFORM AND SCAFFOLD FOR FAP TARGETING AGENTS” (Erasmus University Rotterdam Medical Center, priority 2022, dated 2024)

What was measured:
[1] = molecular target: T1, FAP (Homo sapiens, UniProt Q12884); test: In vitro inhibition assay on human FAP (Z-GP-AMC substrate); assay type: biochemical; conditions: enzymatic assay; 20 µM Z-GP-AMC, 20 nM FAP; unit inferred
T1 sequence (Q12884 1-760): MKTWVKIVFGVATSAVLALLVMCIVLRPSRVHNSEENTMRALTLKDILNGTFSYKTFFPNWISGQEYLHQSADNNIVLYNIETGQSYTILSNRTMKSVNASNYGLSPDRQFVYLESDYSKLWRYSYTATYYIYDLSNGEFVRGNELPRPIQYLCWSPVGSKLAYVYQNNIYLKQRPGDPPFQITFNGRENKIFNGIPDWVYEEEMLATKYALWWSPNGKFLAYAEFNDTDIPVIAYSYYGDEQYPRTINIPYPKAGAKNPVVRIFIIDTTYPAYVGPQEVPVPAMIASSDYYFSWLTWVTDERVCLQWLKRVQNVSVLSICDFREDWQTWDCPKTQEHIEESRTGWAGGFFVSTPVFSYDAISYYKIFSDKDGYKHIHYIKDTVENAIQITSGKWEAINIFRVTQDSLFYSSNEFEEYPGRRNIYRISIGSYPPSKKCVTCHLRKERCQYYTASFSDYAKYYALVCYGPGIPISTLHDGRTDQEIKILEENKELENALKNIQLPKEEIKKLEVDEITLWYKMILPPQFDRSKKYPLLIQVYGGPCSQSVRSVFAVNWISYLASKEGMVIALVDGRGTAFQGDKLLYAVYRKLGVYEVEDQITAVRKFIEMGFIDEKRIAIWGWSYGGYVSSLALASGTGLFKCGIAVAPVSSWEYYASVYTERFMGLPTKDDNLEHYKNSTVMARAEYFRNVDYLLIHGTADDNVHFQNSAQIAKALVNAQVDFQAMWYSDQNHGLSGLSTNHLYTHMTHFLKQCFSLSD
Protocol: Enzymatic activity of human FAP (hFAP) and mouse FAP (mFAP) on the Z-GP-AMC substrate was measured at room temperature on a Hidex microplate reader by monitoring the fluorescence at an excitation wavelength of 360 nm and an emission wavelength of 465 nm. The reaction mixture contained 20 µM substrate, 20 nM FAP, assay buffer (50 mM Tris, 100 mM NaCl, 1 mM EDTA, pH 7.4) and tested compound (serial dilution from 10^-6 to 10^-12) in a total volume of 50 µL.

[2] = LogD7.4 shake-flask method (n-octanol/PBS); assay type: physicochemical; conditions: radiolabeled compound; n-octanol/PBS pH 7.4; triplicates
Protocol: Distribution coefficients (LogD7.4 values) were determined by a shake-flask method. Sample containing the ^203Pb-labeled compound was added to a vial containing 600 µL PBS (pH 7.4) and 600 µL n-octanol. The vial was vortexed vigorously and then centrifuged for 10 min for phase separation. Samples of the octanol (200 µL) and aqueous (200 µL) phases were taken and counted on a PerkinElmer WIZARD 2480 gamma counter. LogD7.4 value was calculated by using the equation: LogD7.4 = log [(counts in octanol phase)/(counts in aqueous phase)]. All the experiments were performed in triplicates.

[3] = system: FAP^+ U-87 cells; test: Cytotoxicity assay (resazurin) in U-87 cells; assay type: cell-based; conditions: single dose 1 µM, incubation time not stated
Protocol: In 96-well plates, U-87 cells (3 × 10^3) were seeded in each well and incubated at 37 °C and 5% CO2 for 24 h. The medium was removed and the wells were washed once with PBS. The cytotoxic drug (positive control) or the eFAP conjugate containing the drug were prepared at various concentrations (i.e., 1, 10, 100, 1000 nM) in DMEM culture medium, supplemented with 2 mM L-glutamine, 10% FBS, 50 units/mL penicillin, and 50 µg/mL streptomycin. Medium was used as a negative control. Cells were incubated with 100 µL of the tested compounds for 1, 24, 48, and 72 h. After incubation, medium was removed and each well was washed once with PBS. Next, 100 µL of 10% resazurin solution in culture medium was added to each well and incubated for 2.5 h. Fluorescence measurements were carried out using a microplate reader at 544 nm excitation and 590 nm emission.

[4] = system: U-87 tumor; test: Near-infrared fluorescence imaging of U-87 tumor bearing mice; assay type: in vivo; conditions: 2 nmol intravenous
Excerpt: Six-week-old male Balb/c nu/nu-specific and opportunistic pathogen-tree (SOPF) mice were housed in individually ventilated cages, with 4 mice per cage. Upon arrival, mice were acclimated for 1 week, with access to food and water ad libitum. Mice were subcutaneously inoculated on the right shoulder with U-87 or HT-1080.hFAP cells (1 × 10^6 cells). Xenografts were allowed to grow until they reached an appropriate size at the start of the studies. All animal experiments were approved by the Animal Welfare Committee of the Erasmus MC and were conducted in agreement with institutional guidelines (license number: AVD101002017867).
Evaluation of targeting performance of eFAP-17 in near-infrared fluorescence imaging of U-87 tumor bearing mice after intravenous injection of 2 nmol of the probe are given in Figure 9 showing A) NIRF imaging of U-87 tumor bearing mice at 1 h after intravenous injection of 2 nmol of CW800 (left, negative control) or eFAP-17 (right) and B) image of excised tumors 2.5 h post administration of CW800 (left) or eFAP-17 (right).

| Compound | IC50 [1] [nM] | LogD7.4 [2] | also measured |
| --- | --- | --- | --- |
| N#C[C@@H]1CC(F)(F)CN1C(=O)CNC(=O)c1ccnc2c(OCCCNC(=O)COCC(=O)Nc3ccc(CNC(=O)CN4CCN(CC(=O)O)CCN(CC(=O)O)CCN(CC(=O)O)CC4)cc3)cccc12 [eFAP-11, (S)-2,2',2"-(10-(2-((4-(2-(2-((3-((4-((2-(2-Cyano-4,4-difluoropyrrolidin-1-yl)-2-oxoethyl)carbamoyl)quinolin-8-yl)oxy)propyl)amino)-2-oxoethoxy)acetamido)benzyl)amino)-2-oxoethyl)-1,4,7,10-tetraazacyclododecane-1,4,7-triyl)triacetic acid] | 1.8 ± 0.8 | -3.34 ± 0.07 | – |
| N#C[C@@H]1CC(F)(F)CN1C(=O)CNC(=O)c1ccnc2c(OCCCNC(=O)CN3CCN(CCNC(=O)CN4CCN(CC(=O)O)CCN(CC(=O)O)CCN(CC(=O)O)CC4)CC3)cccc12 [eFAP-13, (S)-2,2',2"-(10-(2-((2-(4-(2-((3-((4-((2-(2-Cyano-4,4-difluoropyrrolidin-1-yl)-2-oxoethyl)carbamoyl)quinolin-8-yl)oxy)propyl)amino)-2-oxoethyl)piperazin-1-yl)ethyl)amino)-2-oxoethyl)-1,4,7,10-tetraazacyclododecane-1,4,7-triyl)triacetic acid] | 1.7 ± 0.5 | -3.28 ± 0.15 | – |
| N#C[C@@H]1CC(F)(F)CN1C(=O)CNC(=O)c1ccnc2c(OCCCNC(=O)CN3CCN(C(=O)CN4CCN(CC(=O)O)CCN(CC(=O)O)CCN(CC(=O)O)CC4)CC3)cccc12 [eFAP-12, (S)-2,2',2"-(10-(2-(4-(2-((3-((4-((2-(2-Cyano-4,4-difluoropyrrolidin-l-yl)-2-oxoethyl)carbamoyl)quinolin-8-yl)oxy)propyl)amino)-2-oxoethyl)piperazin-1-yl)-2-oxoethyl)-1,4,7,10-tetraazacyclododecane-1,4,7-triyl)triacetic acid] | – | -3.72 ± 0.08 | – |
| (1^4S,1^6S,3^2S,3^3S,2R,4S,10E,12E,14R)-8^6-chloro-1^4-hydroxy-8^5,14-dimethoxy-3^3,2,7,10-tetramethyl-1^2,6-dioxo-7-aza-1(6,4)-oxazinana-3(2,3)-oxirana-8(1,3)-benzenacyclotetradecaphane-10,12-dien-4-yl N-(3-((3-((3-((4-((2-((S)-2-cyano-4,4-difluoropyrrolidin-1-yl)-2-oxoethyl)carbamoyl)quinolin-8-yl)oxy)propyl)amino)-3-oxopropyl)disulfaneyl)propanoyl)-N-methyl-L-alaninate [eFAP-18] | – | – | cell viability [3]: approximately 25% |
| N#C[C@@H]1CC(F)(F)CN1C(=O)CNC(=O)c1ccnc2c(OCCCNC(=O)CCC(C(=O)O)N3CCN(CC(=O)O)CCN(CC(=O)O)CCN(CC(=O)O)CC3)cccc12 (stereo partly drawn) [eFAP-8, 2,2',2"-(10-(1-Carboxy-4-((3-((4-((2-((S)-2-cyano-4,4-difluoropyrrolidin-1-yl)-2-oxoethyl)carbamoyl)quinolin-8-yl)oxy)propyl)amino)-4-oxobutyl)-1,4,7,10-tetraazacyclododecane-1,4,7-triyl)triacetic acid] | 1.7 ± 0.5 | -3.58 ± 0.09 | – |
| COc1cc2cc(c1Cl)N(C)C(=O)C[C@H](OC(=O)[C@H](C)N(C)C(=O)CCS)[C@]1(C)O[C@H]1[C@H](C)[C@@H]1C[C@@](O)(NC(=O)O1)[C@H](OC)/C=C/C=C(\C)C2 [DM1, Mertansine] | – | – | cell viability [3]: 40% |
| N#C[C@@H]1CC(F)(F)CN1C(=O)CNC(=O)c1ccnc2c(OCCCNC(=O)CN3CCC(NC(=O)CN4CCN(CC(=O)O)CCN(CC(=O)O)CCN(CC(=O)O)CC4)CC3)cccc12 [eFAP-10, (S)-2,2',2"-(10-(2-((1-(2-((3-((4-((2-(2-Cyano-4,4-difluoropyrrolidin-1-yl)-2-oxoethyl)carbamoyl)quinolin-8-yl)oxy)propyl)amino)-2-oxoethyl)piperidin-4-yl)amino)-2-oxoethyl)-1,4,7,10-tetraazacyclododecane-1,4,7-triyl)triacetic acid] | – | -3.64 ± 0.02 | – |
| CC1(C)C(/C=C/C2=C(Oc3ccc(S(=O)(=O)O)cc3)C(=C/C=C3/N(CCCCCC(=O)NCCCOc4cccc5c(C(=O)NCC(=O)N6CC(F)(F)C[C@H]6C#N)ccnc45)c4ccc(S(=O)(=O)O)cc4C3(C)C)/CCC2)=[N+](CCCCS(=O)(=O)[O-])c2ccc(S(=O)(=O)O)cc21 [eFAP-17, 4-(2-((E)-2-((E)-3-(2-((E)-1-(6-((3-((4-((2-((S)-2-Cyano-4,4-difluoropyrrolidin-1-yl)-2-oxoethyl)carbamoyl)quinolin-8-yl)oxy)propyl)amino)-6-oxohexyl)-3,3-dimethyl-5-sulfoindolin-2-ylidene)ethylidene)-2-(4-sulfophenoxy)cyclohex-1-en-1-yl)vinyl)-3,3-dimethyl-5-sulfo-3H-indol-1-ium-1-yl)butane-1-sulfonate] | 5.6 ± 1.6 | – | accumulation in healthy tissues ([4]; NIRF imaging): low accumulation in healthy tissues; uptake in the FAP overexpressing tumor ([4]; NIRF imaging at 1 h, excised tumors 2.5 h): high uptake in the FAP overexpressing tumor |
| N#C[C@@H]1CC(F)(F)CN1C(=O)CNC(=O)c1ccnc2c(OCCCNC(=O)C3CCC(CNC(=O)CN4CCN(CC(=O)O)CCN(CC(=O)O)CCN(CC(=O)O)CC4)CC3)cccc12 (stereo partly drawn) [eFAP-9, 2,2',2"-(10-(2-(((4-((3-((4-((2-((S)-2-Cyano-4,4-difluoropyrrolidin-1-yl)-2-oxoethyl)carbamoyl)quinolin-8-yl)oxy)propyl)carbamoyl)cyclohexyl)methyl)amino)-2-oxoethyl)-1,4,7,10-tetraazacyclododecane-1,4,7-triyl)triacetic acid] | 3.6 ± 2.3 | -3.47 ± 0.07 | – |
